Legend:
[1] = Solubility in organic solvents; format: physicochemical; conditions: in chloroform and acetone
[2] = Maximum loading giving stable nanoparticles (FNP); format: physicochemical; conditions: PBA-b-PAA nanoparticles by FNP
Description: Increasing the percentage of core material necessitated the formation of larger particles. […] This may be because the addition of core material allows the PAA to more tightly pack due to charge shielding effects. Very high loadings of both lysozyme and vancomycin were obtained. Loading of lysozyme as high as 75 wt % was obtained without the formation of large precipitates, however, the particles were too large to analyze using dynamic light scattering (DLS).

| Molecule | solubility [1] | loading obtained with stable particles / without large precipitates [2] |
| --- | --- | --- |
| CN[C@H](CC(C)C)C(=O)N[C@H]1C(=O)N[C@@H](CC(N)=O)C(=O)N[C@H]2C(=O)N[C@H]3C(=O)N[C@H](C(=O)N[C@H](C(=O)O)c4cc(O)cc(O)c4-c4cc3ccc4O)[C@H](O)c3ccc(c(Cl)c3)Oc3cc2cc(c3O[C@@H]2O[C@H](CO)[C@@H](O)[C@H](O)[C@H]2O[C@H]2C[C@](C)(N)[C@H](O)[C@H](C)O2)Oc2ccc(cc2Cl)[C@H]1O [Vancomycin, vancomycin] | poorly soluble | up to 90 wt % |
| lysozyme |  | ≤ 75 wt % |
